Source: patent US9840513B2 (AbbVie S.à.r.l., priority 2015, dated 2017)

Target: T1, F508delCFTR cell surface expression in CFBE41o-F508delCFTR-HRP cells (Homo sapiens, UniProt P13569, DEL508-508)
T1 construct: fused on or other part: Horseradish peroxidase (HRP) reporter inserted in the fourth exofacial (extracellular) loop of CFTR; expression is doxycycline-inducible
Assay: Cell Surface Expression-Horse Radish Peroxidase (CSE-HRP) Assay
Format: cell-based
Conditions: for EC50: CFBE41o-F508delCFTR-HRP cells, 18-24 hours at 33° C., 8-point curve, highest concentration 20 μM; for Maximum % activity (%): maximum at any tested concentration, normalized to on-plate positive control (3 μM)
From the text: Cell Surface Expression-Horse Radish Peroxidase (CSE-HRP) Assay:
A cellular assay for measuring the F508delCFTR cell surface expression after correction with test compounds was developed in human lung derived epithelial cell line (CFBE41o-) (Veit G et al, (2012) Mol Biol Cell. 23(21): 4188-4202). This was achieved by expressing the F508delCFTR mutation along with a horseradish peroxidase (HRP) in the fourth exofacial loop and then measuring the HRP activity using luminescence readout from these cells, CFBE41o-F508delCFTR-HRP, that were incubated overnight with the test corrector compounds. Briefly, for this primary assay, the CFBE41o-F508delCFTR-HRP cells were plated in 384-well plates (Greiner Bio-one; Cat 781080) at 4,000 cells/well along with 0.5 μg/mL doxycycline to induce the F508delCFTR-HRP expression and further incubated at 37° C., 5% CO2 for 72 hours. The test compounds were then added at the required concentrations and further incubated for 18-24 hours at 33° C. The highest concentration tested was 20 μM with an 8-point concentration response curve using a 3-fold dilution. Three replicate plates were run to determine one EC50. All plates contained negative controls (dimethyl sulfoxide, DMSO) and positive controls (3 μM of 3-[(2R,4R)-4-({[1-(2,2-difluoro-1,3-benzodioxol-5-yl)cyclopropyl]carbonyl}amino)-7-methoxy-3,4-dihydro-2H-chromen-2-yl]benzoic acid) as well as on-plate concentration response of the positive control. Post incubation, the plates were washed 5× times with Dulbecco's phosphate buffered saline (DPBS), followed by the addition of the HRP substrate, luminol (50 μL), and measuring the HRP activity using luminescence readout on EnVision® Multilabel Plate Reader (Perkin Elmer; product number 2104-0010). The raw counts from the experiment are analyzed using Accelrys® Assay Explorer v3.3.
Z′ greater than 0.5 was used as passing quality control criteria for the plates.
The Z′ is defined as: 1−[3*SDPositive Control+3*SDNegative Control/Absolute(MeanPositive Control−MeanNegative Control)] wherein “SD” is standard deviation.
The % activity measured at each of the 8 test concentrations of the test compound was normalized to the on-plate positive control using the following formula: % activity=[(test compound response DMSO response)/(positive control response DMSO response)]*100
The maximum % activity achieved for the test compound at any tested concentration is presented in Table 1 along with the EC50 calculated using the following general sigmoidal curve with variable Hill slope equation (described as Model 42 in the Accelrys® Assay Explorer v3.3 software): y=(a−d)/(1+(x/c)^b)+d
General sigmoidal curve with concentration, response, top, bottom, EC50 and Hill slope.
This model describes a sigmoidal curve with an adjustable baseline, a. The equation can be used to fit curves where response is either increasing or decreasing with respect to the independent variable, “x”.
“x” is a concentration of drug under test.
“a” is the maximum response, and “d” is the minimum response
“c” is the inflection point (EC50) for the curve. That is, “y” is halfway between the lower and upper asymptotes when x=c.
“b” is the slope-factor or Hill coefficient. The sign of b is positive when the response increases with increasing dose and is negative when the response decreases with increasing dose (inhibition).

T1 sequence (P13569 with tags, fused parts or gaps DEL508-508 limits assumed): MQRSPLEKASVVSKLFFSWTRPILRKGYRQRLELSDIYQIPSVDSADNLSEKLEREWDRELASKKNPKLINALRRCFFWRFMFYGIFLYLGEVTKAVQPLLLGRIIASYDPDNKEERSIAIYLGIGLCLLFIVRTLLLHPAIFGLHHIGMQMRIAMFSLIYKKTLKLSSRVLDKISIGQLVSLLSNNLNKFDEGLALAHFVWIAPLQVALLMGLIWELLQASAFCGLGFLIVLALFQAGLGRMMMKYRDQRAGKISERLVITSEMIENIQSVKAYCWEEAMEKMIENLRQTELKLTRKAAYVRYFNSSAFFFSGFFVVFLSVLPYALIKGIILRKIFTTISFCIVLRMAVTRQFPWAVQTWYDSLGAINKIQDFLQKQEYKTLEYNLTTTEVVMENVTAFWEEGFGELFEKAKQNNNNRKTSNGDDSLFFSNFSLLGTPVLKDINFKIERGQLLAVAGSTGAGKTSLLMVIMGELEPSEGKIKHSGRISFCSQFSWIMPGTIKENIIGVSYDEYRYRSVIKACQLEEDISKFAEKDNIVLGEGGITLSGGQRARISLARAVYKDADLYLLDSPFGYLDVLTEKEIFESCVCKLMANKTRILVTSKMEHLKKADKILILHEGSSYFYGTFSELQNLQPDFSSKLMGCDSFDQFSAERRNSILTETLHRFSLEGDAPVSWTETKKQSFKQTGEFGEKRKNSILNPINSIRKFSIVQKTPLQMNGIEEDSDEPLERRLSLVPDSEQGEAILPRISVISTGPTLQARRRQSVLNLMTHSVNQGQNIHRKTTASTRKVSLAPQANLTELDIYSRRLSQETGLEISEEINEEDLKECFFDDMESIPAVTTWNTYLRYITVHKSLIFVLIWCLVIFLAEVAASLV
T1 sequence (P13569 919-1480 limits assumed, stated change not applied): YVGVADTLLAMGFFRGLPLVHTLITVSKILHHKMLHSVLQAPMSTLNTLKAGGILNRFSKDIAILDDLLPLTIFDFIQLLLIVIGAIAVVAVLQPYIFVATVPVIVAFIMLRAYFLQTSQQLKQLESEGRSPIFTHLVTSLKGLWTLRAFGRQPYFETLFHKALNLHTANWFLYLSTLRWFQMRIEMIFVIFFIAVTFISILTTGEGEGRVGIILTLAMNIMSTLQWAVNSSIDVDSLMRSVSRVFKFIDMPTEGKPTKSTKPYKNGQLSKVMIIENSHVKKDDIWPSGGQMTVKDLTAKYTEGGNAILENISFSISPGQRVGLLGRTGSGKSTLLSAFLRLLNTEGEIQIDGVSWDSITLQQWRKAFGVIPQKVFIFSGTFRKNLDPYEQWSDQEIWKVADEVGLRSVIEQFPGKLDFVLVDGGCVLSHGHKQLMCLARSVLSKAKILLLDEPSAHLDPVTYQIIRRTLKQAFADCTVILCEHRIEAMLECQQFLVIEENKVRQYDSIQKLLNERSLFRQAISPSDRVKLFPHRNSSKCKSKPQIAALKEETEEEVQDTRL

Row | SMILES | EC50 | Maximum % activity (%)
1 | COc1ccc2c(c1)O[C@@H](c1cccc(C(=O)O)c1)C[C@H]2NC(=O)[C@]1(C)COc2cc3c(cc21)OC(F)(F)O3 [Example 13, 3-[(2R,4R)-4-{[(7S)-2,2-difluoro-7-methyl-6,7-dihydro-2H-furo[2,3-f][1,3]benzodioxole-7-carbonyl]amino}-7-methoxy-3,4-dihydro-2H-1-benzopyran-2-yl]benzoic acid] | 8.81 µM | 72%
2 | COc1ccc2c(c1)O[C@@H](c1cccc(C(=O)O)c1)C[C@H]2NC(=O)[C@@]1(C)COc2cc3c(cc21)OC(F)(F)O3 [Example 14, 3-[(2R,4R)-4-{[(7R)-2,2-difluoro-7-methyl-6,7-dihydro-2H-furo[2,3-f][1,3]benzodioxole-7-carbonyl]amino}-7-methoxy-3,4-dihydro-2H-1-benzopyran-2-yl]benzoic acid] | 0.38 µM | 187%
3 | COC(=O)c1ccc([C@H]2C[C@@H](NC(=O)C3(C)COc4cc5c(cc43)OC(F)(F)O5)c3ccc(OC)cc3O2)cc1 (stereo partly drawn) [Example 15, methyl 4-{(2R,4R)-4-[(2,2-difluoro-7-methyl-6,7-dihydro-2H-furo[2,3-f][1,3]benzodioxole-7-carbonyl)amino]-7-methoxy-3,4-dihydro-2H-1-benzopyran-2-yl}benzoate] | 0.15 µM | 143%
4 | COc1ccc2c(c1)O[C@@H](c1ccc(C(=O)O)cc1)C[C@H]2NC(=O)C1(C)COc2cc3c(cc21)OC(F)(F)O3 (stereo partly drawn) [Example 16, 4-{(2R,4R)-4-[(2,2-difluoro-7-methyl-6,7-dihydro-2H-furo[2,3-f][1,3]benzodioxole-7-carbonyl)amino]-7-methoxy-3,4-dihydro-2H-1-benzopyran-2-yl}benzoic acid] | 0.06 µM | 150%
5 | COC(=O)c1ccc([C@H]2C[C@@H](NC(=O)[C@]3(C)COc4cc5c(cc43)OC(F)(F)O5)c3ccc(OC)cc3O2)cc1 [Example 17, methyl 4-[(2R,4R)-4-{[(7S)-2,2-difluoro-7-methyl-6,7-dihydro-2H-furo[2,3-f][1,3]benzodioxole-7-carbonyl]amino}-7-methoxy-3,4-dihydro-2H-1-benzopyran-2-yl]benzoate] | 8.77 µM | 31%
6 | COc1ccc2c(c1)O[C@@H](c1ccc(C(=O)O)cc1)C[C@H]2NC(=O)[C@]1(C)COc2cc3c(cc21)OC(F)(F)O3 [Example 18, 4-[(2R,4R)-4-{[(7S)-2,2-difluoro-7-methyl-6,7-dihydro-2H-furo[2,3-f][1,3]benzodioxole-7-carbonyl]amino}-7-methoxy-3,4-dihydro-2H-1-benzopyran-2-yl]benzoic acid] | 5.75 µM | 91%
7 | COC(=O)c1ccc([C@H]2C[C@@H](NC(=O)[C@@]3(C)COc4cc5c(cc43)OC(F)(F)O5)c3ccc(OC)cc3O2)cc1 [Example 19, methyl 4-[(2R,4R)-4-{[(7R)-2,2-difluoro-7-methyl-6,7-dihydro-2H-furo[2,3-f][1,3]benzodioxole-7-carbonyl]amino}-7-methoxy-3,4-dihydro-2H-1-benzopyran-2-yl]benzoate] | 0.08 µM | 130%
8 | C[C@]1(C(=O)N[C@@H]2C[C@H](c3cccc(C(=O)O)c3)Oc3ccccc32)COc2cc3c(cc21)OC(F)(F)O3 [Example 22, 3-[(2R,4R)-4-{[(7R)-2,2-difluoro-7-methyl-6,7-dihydro-2H-furo[2,3-f][1,3]benzodioxole-7-carbonyl]amino}-3,4-dihydro-2H-1-benzopyran-2-yl]benzoic acid] | 0.64 µM | 156%
9 | C[C@]1(C(=O)N[C@@H]2C[C@H](c3ccc(C(=O)O)cc3)Oc3ccccc32)COc2cc3c(cc21)OC(F)(F)O3 [Example 23, 4-[(2R,4R)-4-{[(7R)-2,2-difluoro-7-methyl-6,7-dihydro-2H-furo[2,3-f][1,3]benzodioxole-7-carbonyl]amino}-3,4-dihydro-2H-1-benzopyran-2-yl]benzoic acid] | 0.18 µM | 127%
10 | CC1(C)OC[C@@H](Cn2nc(-c3ccccc3)cc(NC(=O)C3(C)COc4cc5c(cc43)OC(F)(F)O5)c2=O)O1 (stereo partly drawn) [Example 24, N-(2-{[(4R)-2,2-dimethyl-1,3-dioxolan-4-yl]methyl}-3-oxo-6-phenyl-2,3-dihydropyridazin-4-yl)-2,2-difluoro-7-methyl-6,7-dihydro-2H-furo[2,3-f][1,3]benzodioxole-7-carboxamide] | 1.18 µM | 70%
11 | CC1(C)OC[C@@H](Cn2nc(-c3ccccc3)cc(NC(=O)[C@@]3(C)COc4cc5c(cc43)OC(F)(F)O5)c2=O)O1 [Example 26, (7R)—N-(2-{[(4R)-2,2-dimethyl-1,3-dioxolan-4-yl]methyl}-3-oxo-6-phenyl-2,3-dihydropyridazin-4-yl)-2,2-difluoro-7-methyl-6,7-dihydro-2H-furo[2,3-f][1,3]benzodioxole-7-carboxamide] | 0.98 µM | 85%
12 | COC(=O)c1cccc(-n2nc(C3CC3)cc(NC(=O)[C@@]3(C)COc4cc5c(cc43)OC(F)(F)O5)c2=O)c1 [Example 28, methyl 3-[3-cyclopropyl-5-{[(7R)-2,2-difluoro-7-methyl-6,7-dihydro-2H-furo[2,3-f][1,3]benzodioxole-7-carbonyl]amino}-6-oxopyridazin-1(6H)-yl]benzoate] | 1.42 µM | 112%
13 | C[C@]1(C(=O)Nc2cc(C3CC3)nn(-c3cccc(C(=O)O)c3)c2=O)COc2cc3c(cc21)OC(F)(F)O3 [Example 29, 3-[3-cyclopropyl-5-{[(7R)-2,2-difluoro-7-methyl-6,7-dihydro-2H-furo[2,3-f][1,3]benzodioxole-7-carbonyl]amino}-6-oxopyridazin-1(6H)-yl]benzoic acid] | 1.07 µM | 155%
14 | C[C@@]1(C(=O)Nc2cc(C3CC3)nn(-c3ccc(C(=O)O)cc3)c2=O)COc2cc3c(cc21)OC(F)(F)O3 [Example 31, 4-[3-cyclopropyl-5-{[(7S)-2,2-difluoro-7-methyl-6,7-dihydro-2H-furo[2,3-f][1,3]benzodioxole-7-carbonyl]amino}-6-oxopyridazin-1(6H)-yl]benzoic acid] | > 20 µM | 7%
15 | COC(=O)c1cccc(-n2nc(C3CC3)cc(NC(=O)C3(C)COc4cc5c(cc43)OC(F)(F)O5)c2=O)c1 (stereo not drawn) [Example 40, methyl 3-{3-cyclopropyl-5-[(2,2-difluoro-7-methyl-6,7-dihydro-2H-furo[2,3-f][1,3]benzodioxole-7-carbonyl)amino]-6-oxopyridazin-1(6H)-yl}benzoate] | 0.21 µM | 132%
16 | CC1(C)OC[C@@H](Cn2nc(-c3ccccc3)cc(NC(=O)[C@]3(C)COc4cc5c(cc43)OC(F)(F)O5)c2=O)O1 [Example 41, (7S)—N-(2-{[(4R)-2,2-dimethyl-1,3-dioxolan-4-yl]methyl}-3-oxo-6-phenyl-2,3-dihydropyridazin-4-yl)-2,2-difluoro-7-methyl-6,7-dihydro-2H-furo[2,3-f][1,3]benzodioxole-7-carboxamide] | > 20 µM | 3%
17 | COc1ccc2c(c1)O[C@@H](c1ccc(C(=O)O)cc1)C[C@H]2NC(=O)[C@@]1(C)CCc2c1ccc1c2OCO1 [Example 42, 4-[(2R,4R)-7-methoxy-4-{[(6S)-6-methyl-7,8-dihydro-2H,6H-indeno[4,5-d][1,3]dioxole-6-carbonyl]amino}-3,4-dihydro-2H-1-benzopyran-2-yl]benzoic acid] | 1.06 µM | 61%
18 | Cc1ccc(NC(=O)C2(C)CCc3cc4c(cc32)OC(F)(F)O4)nc1-c1cccc(C(=O)O)c1 (stereo not drawn) [Example 51, 3-{6-[(2,2-difluoro-5-methyl-6,7-dihydro-2H,5H-indeno[5,6-d][1,3]dioxole-5-carbonyl)amino]-3-methylpyridin-2-yl}benzoic acid] | 0.93 µM | 153%
